A word on the Km: it is the concentration of substrate that gives half-maximal velocity. For orientation: IC50 means the concentration needed to halve the response being measured.

The values below come from US20260327191A1, “GSK3a INHIBITORS AND METHODS OF USE THEREOF” (Blueprint Medicines Corporation, priority 2023, published 2026).

For one assay, the system named is GSK3α knockout mice. The note with it: blockade of autophagy and mTOR pathway activation; cited from earlier work.
For the next assay, the system named is GSK3α or GSK3B. As to the kind of experiment: Measured Km for ATP in the GSK3 in vitro enzymatic activity assay. The note with it: role: substrate; 100 mM HEPES pH 7.5, 10 mM MgCl2; 1.0 μM peptide substrate (5-FAM-KRREILSRRPpSYR-COOH); 25° C. Format: biochemical, human. The method, then:
Full length human GSK3α or GSK3B expressed as N-terminal GST fusion proteins in baculovirus host were purchased from Carna Biosciences (Japan). The kinase was pre-incubated with ATP (adenosine-5′-triphosphate) for 45 min, then incubated with tested compounds for another 45 min in assay buffer that contains 100 mM HEPES (N-2-hydroxyethylpiperazine-N′-2-ethanesulfonic acid), pH 7.5, 10 mM MgCl2, 1.0 mM DTT, and 0.015% Briji-35. […] Percent inhibition was plotted against compound concentration to generate 10-point dose response curve with 3-fold serial dilution starting from 10 μM. IC50 value was determined from the 4-parameter logistic curve fitting.

A further assay concerns the target T1, human GSK3α (Homo sapiens, UniProt P49840).
T1 construct: Full length human GSK3α or GSK3B expressed as N-terminal GST fusion proteins; GST (N); purchased Carna Biosciences (Japan); host or cells: baculovirus host
Put plainly: In vitro enzymatic activity assay, GSK3α. Format: biochemical. The note with it: 1.0 mM ATP, 1.0 μM peptide substrate, 120 min, 25° C, read-out: Enzyme GSK3α (IC50).

The next assay has as its target T2, GSK3A (Homo sapiens, UniProt P49840).
T2 construct: expressed in transfected cells
Put plainly: NanoBRET cellular target engagement assay, Nanoluc-GSK3A in HEK293 cells. The note with it: NanoBRET GSK3α IC50, HEK293 cells, tracer K-8, 2 hours, 37° C. It is filed as cell-based.

The target in assay [1] is T3, GSK3B (Homo sapiens, UniProt P49841). Put plainly: NanoBRET cellular target engagement assay, Nanoluc-GSK3B in HEK293 cells. The note with it: NanoBRET GSK3β IC50, HEK293 cells, tracer K-8, 2 hours, 37° C. Set-up: expressed in transfected cells. It is filed as cell-based.
For assay [2], the target named is T3, GSK3B. Put plainly: In vitro enzymatic activity assay, GSK3β. Format: biochemical. Also noted: Full length human GSK3α or GSK3B expressed as N-terminal GST fusion proteins; GST (N); purchased Carna Biosciences (Japan); host or cells: baculovirus host. The note with it: 1.0 mM ATP, 1.0 μM peptide substrate, 120 min, 25° C, read-out: Enzyme GSK3β (IC50).

Counter-ions that a name gives are not always drawn.

T1 sequence (P49840 whole entry, the tested form may be a part): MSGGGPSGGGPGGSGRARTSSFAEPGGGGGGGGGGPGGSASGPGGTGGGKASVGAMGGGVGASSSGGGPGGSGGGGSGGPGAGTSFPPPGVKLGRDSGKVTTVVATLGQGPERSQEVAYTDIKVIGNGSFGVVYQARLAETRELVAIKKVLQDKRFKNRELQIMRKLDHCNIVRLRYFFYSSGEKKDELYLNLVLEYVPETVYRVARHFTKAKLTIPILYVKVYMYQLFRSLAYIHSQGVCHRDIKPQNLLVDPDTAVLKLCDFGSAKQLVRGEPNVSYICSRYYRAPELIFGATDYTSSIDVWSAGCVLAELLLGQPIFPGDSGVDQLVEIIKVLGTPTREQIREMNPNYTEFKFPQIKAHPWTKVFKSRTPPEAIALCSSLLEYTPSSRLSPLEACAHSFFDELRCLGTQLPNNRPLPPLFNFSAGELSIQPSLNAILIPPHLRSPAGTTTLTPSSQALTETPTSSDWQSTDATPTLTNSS
T2 sequence (P49840 whole entry): as the sequence (P49840 whole entry, the tested form may be a part) above
T3 sequence (P49841 whole entry, the tested form may be a part): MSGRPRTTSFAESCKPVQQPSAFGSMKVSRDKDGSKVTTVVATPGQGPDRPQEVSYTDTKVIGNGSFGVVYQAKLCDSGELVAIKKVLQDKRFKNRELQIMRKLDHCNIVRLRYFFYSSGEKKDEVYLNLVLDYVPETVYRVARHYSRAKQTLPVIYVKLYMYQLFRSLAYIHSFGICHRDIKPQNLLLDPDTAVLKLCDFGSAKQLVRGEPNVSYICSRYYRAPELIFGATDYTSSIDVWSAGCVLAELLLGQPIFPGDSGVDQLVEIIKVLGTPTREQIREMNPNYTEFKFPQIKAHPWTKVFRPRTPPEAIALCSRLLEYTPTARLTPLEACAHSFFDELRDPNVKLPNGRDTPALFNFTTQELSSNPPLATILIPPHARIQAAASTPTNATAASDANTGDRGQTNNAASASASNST

As to `CO[C@H]1C[C@@H]2CC[C@@H](C)[C@@](O)(O2)C(=O)C(=O)N2CCCC[C@H]2C(=O)O[C@H]([C@H](C)C[C@@H]2CC[C@@H](OCCO)[C@H](OC)C2)CC(=O)[C@H](C)/C=C(\C)[C@@H](O)[C@@H](OC)C(=O)[C@H](C)C[C@H](C)/C=C/C=C/C=C/1C` [everolimus], the “reversal of mild aging phenotypes of GSK3α knockout mice” value in the assay with GSK3α knockout mice was “could be reversed”.

For the compound `Nc1ncnc2c1ncn2[C@@H]1O[C@H](COP(=O)(O)OP(=O)(O)OP(=O)(O)O)[C@@H](O)[C@H]1O` [ATP, adenosine-5′-triphosphate], in the assay with GSK3α or GSK3B, the Km lay within 10 to 15 µM.

Consider `NCc1cccc(NC(=O)c2c(N)ncn(-c3c(Cl)cccc3Cl)c2=O)c1OC(F)F` [Example 170, 4-amino-N-(3-(aminomethyl)-2-(difluoromethoxy)phenyl)-1-(2,6-dichlorophenyl)-6-oxo-1,6-dihydropyrimidine-5-carboxamide trifluoroacetate], for which the IC50 on human GSK3α is 21.8 nM; at GSK3A, 16.4 nM; against GSK3B [1] it was 526 nM; on GSK3B [2], 520 nM.

On to `COc1cc(Cl)c(-n2cnc(N)c(C(=O)Nc3cnnc(C4CCCCN4)c3)c2=O)c(Cl)c1` (single isomer, unassigned) [Example 172, (R)-4-amino-1-(2,6-dichloro-4-methoxyphenyl)-6-oxo-N-(6-(piperidin-2-yl)pyridazin-4-yl)-1,6-dihydropyrimidine-5-carboxamide or (S)-4-amino-1-(2,6-dichloro-4-methoxyphenyl)-6-oxo-N-(6-(piperidin-2-yl)pyridazin-4-yl)-1,6-dihydropyrimidine-5-carboxamide], for which the IC50 on human GSK3α is 6.3 nM; on GSK3A, 3.5 nM; at GSK3B [1], 98.8 nM; at GSK3B [2] it was 260 nM.

With `COc1cc(Cl)c(-n2cnc(N)c(C(=O)Nc3cncc4c3CCC43CCCN3)c2=O)c(Cl)c1` (centres unmarked) [Example 192, 4-amino-1-(2,6-dichloro-4-methoxyphenyl)-N-(5,6-dihydrospiro[cyclopenta[c]pyridine-7,2′-pyrrolidin]-4-yl)-6-oxo-1,6-dihydropyrimidine-5-carboxamide], the IC50 on human GSK3α was found to be 1.8 nM; on GSK3A, 1.4 nM; against GSK3B [1], 18.8 nM; on GSK3B [2], 14.7 nM.

For the compound `CCOc1cc(Cl)c(-n2cnc(N)c(C(=O)Nc3cncc(CNCCOC)c3)c2=O)c(Cl)c1` [Example 25, 4-amino-1-(2,6-dichloro-4-ethoxyphenyl)-N-(5-(((2-methoxyethyl)amino)methyl)pyridin-3-yl)-6-oxo-1,6-dihydropyrimidine-5-carboxamide], the half-maximal inhibitory concentration (IC50) at human GSK3α worked out at 13.9 nM; against GSK3A, 7.5 nM; on GSK3B [1] it was 715 nM; on GSK3B [2], 692 nM.

On to `CCNCc1cncc(NC(=O)c2c(N)ncn(-c3c(Cl)cc(OC(F)F)cc3Cl)c2=O)c1` [Example 10, 4-amino-1-(2,6-dichloro-4-(difluoromethoxy)phenyl)-N-(5-((ethylamino)methyl)pyridin-3-yl)-6-oxo-1,6-dihydropyrimidine-5-carboxamide], for which the IC50 at human GSK3α was found to be 8.8 nM; against GSK3A it was 6.9 nM; against GSK3B [1], 371 nM; at GSK3B [2] it was 395 nM.

`COCc1cc(Cl)c(-n2cnc(N)c(C(=O)Nc3cncc(CNCCO)c3)c2=O)c(Cl)c1` [Example 63, 4-amino-1-(2,6-dichloro-4-(methoxymethyl)phenyl)-N-(5-(((2-hydroxyethyl)amino)methyl)pyridin-3-yl)-6-oxo-1,6-dihydropyrimidine-5-carboxamide]: the half-inhibitory concentration (IC50) at human GSK3α came to 4.5 nM; against GSK3A, 4.4 nM; on GSK3B [1], 234 nM; at GSK3B [2], 209 nM.

For the compound `CN[C@H](C)c1cc(F)cc(NC(=O)c2c(N)ncn(-c3c(Cl)cccc3Cl)c2=O)c1` [Example 6, (R)-4-amino-1-(2,6-dichlorophenyl)-N-(3-fluoro-5-(1-(methylamino)ethyl)phenyl)-6-oxo-1,6-dihydropyrimidine-5-carboxamide trifluoroacetate], the IC50 came out at 7.2 nM on human GSK3α, 6.5 nM against GSK3A, 352 nM against GSK3B [1] and 292 nM on GSK3B [2].

Turning to `CCOc1cc(Cl)c(-n2cnc(N)c(C(=O)Nc3cncc(C(C)NC)c3)c2=O)c(Cl)c1` (single isomer, unassigned) [Example 24, (R)-4-amino-1-(2,6-dichloro-4-ethoxyphenyl)-N-(5-(1-(methylamino)ethyl)pyridin-3-yl)-6-oxo-1,6-dihydropyrimidine-5-carboxamide or (S)-4-amino-1-(2,6-dichloro-4-ethoxyphenyl)-N-(5-(1-(methylamino)ethyl)pyridin-3-yl)-6-oxo-1,6-dihydropyrimidine-5-carboxamide], the 50% inhibitory concentration (IC50) came out at 4.1 nM on human GSK3α, 2.8 nM at GSK3A, 147 nM at GSK3B [1] and 298 nM at GSK3B [2].

With `COc1cc(Cl)c(-n2cnc(N)c(C(=O)Nc3cc(F)cc([C@H]4CCCCN4)c3)c2=O)c(Cl)c1` (single isomer, unassigned) [Example 222, (R)-4-amino-1-(2,6-dichloro-4-methoxyphenyl)-N-(3-fluoro-5-(piperidin-2-yl)phenyl)-6-oxo-1,6-dihydropyrimidine-5-carboxamide or (S)-4-amino-1-(2,6-dichloro-4-methoxyphenyl)-N-(3-fluoro-5-(piperidin-2-yl)phenyl)-6-oxo-1,6-dihydropyrimidine-5-carboxamide], the IC50 on human GSK3α is 2.1 nM; at GSK3A, 4.6 nM; on GSK3B [1], 148 nM; on GSK3B [2] it was 99.2 nM.
